In patent US20200345733A1, “Microbicidal Pyrimidine or Triazine Containing Compounds” (Janssen Sciences Ireland UC, priority 2002, published 2020):
pIC50: −log10 of the molar value. In brackets after ≈: the same amount, converted by molar mass. Where two headings read alike, the source gives them in different places.

Assays:
[1] = tested on: Lactobacillus species; experiment: In vitro antibacterial activity, lactobacilli; format: cell-based; conditions: 33 different Lactobacillus species from recto-vaginal cultures of pregnant women; read-out: minimum inhibitory concentration (MIC50)
Source text: (§1) Compatibility with lactobacilli and normal vaginal flora is an important requirement for a vaginal microbicide. Activity on pathogens of sexual transmitted diseases is an additional advantage. In in vitro tests for antibacterial activity of compound B, the following susceptibilities were found: • 33 different Lactobacillus species isolated from recto-vaginal cultures of pregnant women were studied.

[2] = tested on: T-lymphocyte proliferation; experiment: Immune suppressive activity in mixed leukocyte cultures (MO-DC stimulators, allogenic CD4(+) T cells); format: cell-based
Method: The immune suppressive activity of compound B was measured in mixed leukocyte cultures (MLC), with MO-DC as stimulators and allogenic CD4(+) T cells as responders. Cultures of 3×10^3 MO-DC and 100×10^3 T cells were set-up in 6-fold in a 96-well plate, in the presence or absence of a dilution series of compound B. In a first part of experiments, compound B was removed after 24 hours by washing and cells were cultured for an additional 4 days. In a second part of experiments, compound B remained present during the 5-day culture period. In both set-ups, 1 μCi of [methyl-^3H] thymidine (TRA. 120 from Amersham Pharmacia, Buckinghamshire, U.K.) was added to each well at the fifth day of culture. Plates were harvested 7 hours later and [methyl-^3H] thymidine incorporation was measured in a scintillation counter (Top Count™, Canberra-Packard, Zellik, Belgium) and expressed as counts per minute (CPM). The
Immune Suppressive Concentration (ISC50) is defined as the drug concentration inhibiting 50% of the lymphocyte proliferation. Cellular toxicity was evaluated microscopically by […] staining of co-cultures of MO-DC and allogeneic CD4(+) T cells , cultured for 5 days in the presence of a dilution series of drug. Part of the harvested cells was also used for flowcytometric analysis of lymphocyte blast formation and apopoptosis, based on forward and side scatter.

[3] = tested on: Neisseria gonorrhoea strains; experiment: In vitro antibacterial activity, Neisseria gonorrhoea; format: cell-based; conditions: some strains
Source text: as §1

[4] = tested on: Hemophilus ducreyi; experiment: In vitro antibacterial activity, Hemophilus ducreyi; format: cell-based
Source text: as §1

[5] = tested on: HIV; experiment: Cervical explant model; format: cell-based
Method: Compound B, at a concentration of 10 nM, was able to block infection of the tissue and at a concentration of 100 nM the compound could prevent transfer of infectious virus from migratory dendritic cells to co-cultured T-cells.

[6] = biological target: HIV-1 reverse transcriptase (Human immunodeficiency virus type 1 group M subtype B, UniProt P04585); experiment: Cell-free HIV-1 reverse transcriptase inhibition; format: biochemical; conditions: inhibits HIV-1 reverse transcriptase activity by 50%, cell-free assay
Method: Next to antiviral activity in CEM T cells, inhibition of HIV-1 reverse transriptase activity was measured in a cell-free assay, in which the 50% inhibitory concentration (IC50) of said compound is indicated (FIG. 1). The CEM system, using a lab T cell-line and the SI/X4labstrain HTLV-IIIb, was not directly relevant to sexual transmission, where primary T cells, dendritic cells and NSI/R5 viruses are involved. Therefore, we focussed on prevention of NSI/R5 HIV infection in MO-DC/CD4(+) T cell co-cultures.

[7] = tested on: HIV-1 (SF162 and 1/BX08); experiment: hu-SCID animal model of vaginal transmission of HIV; format: in vivo; conditions: single intravaginal 25 μl gel (carbopol 940 or HEC; 0.225, 0.0225 or 0.00225 mM) 15-20 minutes before challenge
Method: In order to mimic the in vivo transmission that occurs in humans, a hu-SCID animal model of vaginal transmission of HIV for the evaluation of vaginal microbicides was used (Di Fabio et al., AIDS 2001, 15, 2231-2234 Gels made up of carbopol 940 or hydroxyethyl cellulose (HEC), two water soluble polymers, were prepared containing Compound B in different concentrations (0.225 mM; 0.0225 mM or 0.00225 mM). Animals received a single intravaginal application of 25 μl of gel containing Compound B, 15-20 minutes prior to a non invasive vaginal challenge with 2×10^6 human peripheral blood lymphocytes PBL, (hu-PBL) previously infected in vitro with non-syncitium (NSI) strains of HIV-1 (SF162 and 1/BX08). Cell to cell transmission was assessed by p24 production and by quantitative PCR.

[8] = tested on: primary HIV strains (X4, CCR5 and X41R5); experiment: Efficacy against primary HIV strains in relevant cell lines; format: cell-based

SMILES: Cc1cc(C)c(Nc2ccnc(Nc3ccc(C#N)cc3)n2)c(C)c1 [compound B, 4-[[4-[(2,4,6-trimethylphenyl)amino]-2-pyrimidinyl]amino]benzonitrile]
- MIC50 [1]: > 32 µg/mL
- ISC50 (50% Immune Suppressive Concentration) ([2]; drug present continuously during 5-day culture): about 1,500 nM
- ISC50 (50% Immune Suppressive Concentration) ([2]; drug present continuously during 5-day culture, listed as Comp. B): 1,515 nM
- ISC50 (50% Immune Suppressive Concentration) ([2]; drug present during first 24 hours only): ~25,000 nM
- ISC50 (50% Immune Suppressive Concentration) ([2]; drug present during first 24 hours only, listed as Comp. B): 24,886 nM
- Inhibition of Neisseria gonorrhoea strains [3]: inhibited at clinical relevant concentrations
- MIC50 [4]: 1 µg/mL (≈ 3.04 µM)
- MIC50 ([4]; second value): 2 µg/mL (≈ 6.07 µM)
- Concentration able to block infection of the tissue [5]: 10 nM
- Concentration preventing transfer of infectious virus from migratory dendritic cells to co-cultured T-cells [5]: 100 nM
- pIC50 [6]: 7.62
- Systemic infection after vaginal challenge with HIV-1 infected hu-PBL (p24, quantitative PCR) [7]: systemic infection was successfully inhibited
- Efficacy against primary HIV strains [8]: good efficacy
